# Measurements published in patent US20250339400A1, “ARTESUNATE POWDERS, PHARMACEUTICAL COMPOSITIONS AND METHODS OF MANUFACTURE” (AMIVAS, INC., priority 2024, published 2025).
# Experiment: SEM images of caking / agglomeration
# Assay type: physicochemical
# Description: SEM images were collected using a Phenom XL Desktop SEM equipped with a CeB6 electron source (see FIG. 6). Phenom User Interface version 1.4 was used to acquire and save the images. Detailed image parameters are recorded in the footer of each image. Powder sample preparation for proper SEM results is known to those skilled in the art, and mainly relies on a proper monolayer of particles. These can be prepared with: the flick method, wherein a cotton swab is used to disperse particles onto a sample support by the “flick of a finger”; drop casting, where liquid solvents transfer particles onto a sample stub; or the dish method, where particles are spread over the area of a petri dish or similar flat surface using a spatula. A Nebula Particle Dispenser may also be used to prepare a uniform layer of powder. Although it is desirable to avoid agglomeration, the example as described herein sought to determine when agglomeration occurs at particular humidity levels. The samples tested herein were prepared with the flick method.
smiles,measurement,setting,value
"C[C@H]1[C@H](OC(=O)CCC(=O)O)O[C@@H]2O[C@@]3(C)CC[C@H]4[C@H](C)CC[C@@H]1[C@@]24OO3 [artesunate powder, 4-oxo-4-[[(1R,4S,5R,8S,9R,10S,12R,13R)-1,5,9-trimethyl-11,14,15,16-tetraoxatetracyclo[10.3.1.0^4,13.0^8,13]hexadecan-10-yl]oxy]butanoic acid]",caking / agglomeration in SEM images,20% RH (FIG. 6),"strong caking, or agglomeration"
same,caking in SEM images,35% RH (FIG. 7),less caking
same,agglomeration / caking in SEM images,50% RH (FIG. 8),"significant agglomeration, or caking"
